Results published in ChEMBL document CHEMBL3991601, “The target landscape of clinical kinase drugs” (Science, 2017).
Active and inactive are the calls of the source.

Experiments:
[1] = biological target: Serine/threonine-protein kinase 38-like (Homo sapiens, UniProt Q9Y2H1)
[2] = biological target: ALK tyrosine kinase receptor (Homo sapiens, UniProt Q9UM73); type: subcellular, K-562, COLO 205, SK-N-BE(2) and MV-4-11, Cell lysate; conditions: read-out: Kd apparent
[3] = biological target: Cyclin-dependent kinase 10 (Homo sapiens, UniProt Q15131)
[4] = biological target: Tyrosine-protein kinase Fgr (Homo sapiens, UniProt P09769)
[5] = biological target: T1, Tyrosine-protein kinase Mer (Homo sapiens, UniProt Q12866)
T1 sequence (Q12866 whole entry): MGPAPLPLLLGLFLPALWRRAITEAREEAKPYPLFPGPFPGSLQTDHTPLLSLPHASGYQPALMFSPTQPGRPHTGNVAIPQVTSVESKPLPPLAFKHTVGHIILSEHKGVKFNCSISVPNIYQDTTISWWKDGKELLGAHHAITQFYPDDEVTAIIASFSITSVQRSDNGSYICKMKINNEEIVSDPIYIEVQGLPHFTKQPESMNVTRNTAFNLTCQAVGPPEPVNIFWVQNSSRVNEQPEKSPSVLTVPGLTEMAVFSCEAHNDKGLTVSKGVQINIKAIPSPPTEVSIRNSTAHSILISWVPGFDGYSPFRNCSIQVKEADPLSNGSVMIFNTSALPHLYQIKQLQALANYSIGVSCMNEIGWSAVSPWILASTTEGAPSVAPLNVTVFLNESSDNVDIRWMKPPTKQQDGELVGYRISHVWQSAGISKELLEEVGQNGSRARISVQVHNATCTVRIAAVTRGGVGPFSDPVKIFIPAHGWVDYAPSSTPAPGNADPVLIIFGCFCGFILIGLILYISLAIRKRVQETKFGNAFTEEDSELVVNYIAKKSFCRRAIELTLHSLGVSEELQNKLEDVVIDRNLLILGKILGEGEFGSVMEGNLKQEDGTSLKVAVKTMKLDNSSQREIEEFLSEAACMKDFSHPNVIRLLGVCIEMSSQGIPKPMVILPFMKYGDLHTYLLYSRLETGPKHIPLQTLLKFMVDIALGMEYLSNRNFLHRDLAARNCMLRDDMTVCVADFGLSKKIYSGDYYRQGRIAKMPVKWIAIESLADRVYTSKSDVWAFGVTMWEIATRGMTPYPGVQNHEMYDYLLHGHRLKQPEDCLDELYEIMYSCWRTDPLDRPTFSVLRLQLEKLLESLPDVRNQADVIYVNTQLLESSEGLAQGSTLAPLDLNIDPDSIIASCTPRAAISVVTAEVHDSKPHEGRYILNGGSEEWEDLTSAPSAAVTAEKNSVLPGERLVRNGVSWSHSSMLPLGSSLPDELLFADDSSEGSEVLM

Misshapen-like kinase 1 = Misshapen-like kinase 1 (Homo sapiens, UniProt Q8N4C8)
[6] = biological target: Serine/threonine-protein kinase PLK1 (Homo sapiens, UniProt P53350)
[7] = biological target: Dual specificity tyrosine-phosphorylation-regulated kinase 1B (Homo sapiens, UniProt Q9Y463)
[8] = biological target: Tyrosine-protein kinase JAK2 (Homo sapiens, UniProt O60674)
[9] = biological target: T2, Dual specificity mitogen-activated protein kinase kinase 4 (Homo sapiens, UniProt P45985)
T2 sequence (P45985 whole entry): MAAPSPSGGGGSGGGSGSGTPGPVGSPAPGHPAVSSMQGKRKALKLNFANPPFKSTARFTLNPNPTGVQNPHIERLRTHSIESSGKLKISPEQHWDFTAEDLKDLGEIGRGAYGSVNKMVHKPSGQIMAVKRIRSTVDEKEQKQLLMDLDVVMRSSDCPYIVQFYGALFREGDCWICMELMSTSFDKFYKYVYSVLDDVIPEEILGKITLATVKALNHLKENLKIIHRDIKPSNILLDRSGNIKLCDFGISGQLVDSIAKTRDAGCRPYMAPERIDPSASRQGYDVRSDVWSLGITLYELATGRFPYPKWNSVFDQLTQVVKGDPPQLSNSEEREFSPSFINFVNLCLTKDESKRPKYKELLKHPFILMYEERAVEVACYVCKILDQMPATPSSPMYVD

[10] = biological target: Cyclin-dependent kinase 18 (Homo sapiens, UniProt Q07002)
Note: in the data inactive means no Kd found up to 30 µM.

Chain of Tyrosine-protein kinase JAK2 (O60674 whole entry): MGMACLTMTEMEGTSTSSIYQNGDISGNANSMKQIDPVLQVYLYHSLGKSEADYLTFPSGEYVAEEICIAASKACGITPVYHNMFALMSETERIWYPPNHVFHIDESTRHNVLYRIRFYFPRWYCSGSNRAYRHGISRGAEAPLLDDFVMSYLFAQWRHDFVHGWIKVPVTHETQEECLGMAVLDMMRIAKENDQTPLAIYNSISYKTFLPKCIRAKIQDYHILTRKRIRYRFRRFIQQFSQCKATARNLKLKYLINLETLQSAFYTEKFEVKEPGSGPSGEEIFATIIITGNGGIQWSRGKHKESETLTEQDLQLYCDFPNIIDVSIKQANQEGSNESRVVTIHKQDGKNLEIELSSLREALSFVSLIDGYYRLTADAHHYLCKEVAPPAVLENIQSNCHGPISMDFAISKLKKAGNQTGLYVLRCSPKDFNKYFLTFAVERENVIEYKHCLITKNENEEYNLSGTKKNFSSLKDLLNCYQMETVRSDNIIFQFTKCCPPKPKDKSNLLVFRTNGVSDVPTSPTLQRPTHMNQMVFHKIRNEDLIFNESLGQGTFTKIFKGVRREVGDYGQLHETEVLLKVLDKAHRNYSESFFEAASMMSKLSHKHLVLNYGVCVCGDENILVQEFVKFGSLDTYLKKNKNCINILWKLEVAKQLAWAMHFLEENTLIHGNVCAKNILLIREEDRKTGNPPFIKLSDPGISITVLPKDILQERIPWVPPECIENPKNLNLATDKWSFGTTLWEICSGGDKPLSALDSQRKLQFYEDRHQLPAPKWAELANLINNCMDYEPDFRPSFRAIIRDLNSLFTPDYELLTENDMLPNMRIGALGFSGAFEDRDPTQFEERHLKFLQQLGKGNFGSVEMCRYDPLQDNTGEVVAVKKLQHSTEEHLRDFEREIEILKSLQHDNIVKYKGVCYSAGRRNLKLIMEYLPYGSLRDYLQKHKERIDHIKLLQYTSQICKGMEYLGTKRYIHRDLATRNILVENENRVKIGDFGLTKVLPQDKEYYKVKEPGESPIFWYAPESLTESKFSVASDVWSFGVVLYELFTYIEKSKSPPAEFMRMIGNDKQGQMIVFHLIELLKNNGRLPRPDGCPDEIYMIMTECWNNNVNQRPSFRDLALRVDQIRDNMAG
Chain of Tyrosine-protein kinase Fgr (P09769 whole entry): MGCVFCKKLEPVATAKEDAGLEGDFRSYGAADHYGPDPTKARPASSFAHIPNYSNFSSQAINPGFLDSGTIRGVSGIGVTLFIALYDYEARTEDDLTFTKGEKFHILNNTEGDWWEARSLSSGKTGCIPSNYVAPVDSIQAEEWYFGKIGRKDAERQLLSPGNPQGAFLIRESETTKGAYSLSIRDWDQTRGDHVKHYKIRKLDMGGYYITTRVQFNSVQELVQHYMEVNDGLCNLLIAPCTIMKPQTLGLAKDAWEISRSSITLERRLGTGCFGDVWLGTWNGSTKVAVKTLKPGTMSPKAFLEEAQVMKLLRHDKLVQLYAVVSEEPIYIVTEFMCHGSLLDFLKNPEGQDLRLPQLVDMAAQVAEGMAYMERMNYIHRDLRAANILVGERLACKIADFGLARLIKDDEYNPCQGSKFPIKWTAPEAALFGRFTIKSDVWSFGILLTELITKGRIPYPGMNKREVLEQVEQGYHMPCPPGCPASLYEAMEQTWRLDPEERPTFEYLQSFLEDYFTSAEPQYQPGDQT
Chain of Serine/threonine-protein kinase 38-like (Q9Y2H1 whole entry): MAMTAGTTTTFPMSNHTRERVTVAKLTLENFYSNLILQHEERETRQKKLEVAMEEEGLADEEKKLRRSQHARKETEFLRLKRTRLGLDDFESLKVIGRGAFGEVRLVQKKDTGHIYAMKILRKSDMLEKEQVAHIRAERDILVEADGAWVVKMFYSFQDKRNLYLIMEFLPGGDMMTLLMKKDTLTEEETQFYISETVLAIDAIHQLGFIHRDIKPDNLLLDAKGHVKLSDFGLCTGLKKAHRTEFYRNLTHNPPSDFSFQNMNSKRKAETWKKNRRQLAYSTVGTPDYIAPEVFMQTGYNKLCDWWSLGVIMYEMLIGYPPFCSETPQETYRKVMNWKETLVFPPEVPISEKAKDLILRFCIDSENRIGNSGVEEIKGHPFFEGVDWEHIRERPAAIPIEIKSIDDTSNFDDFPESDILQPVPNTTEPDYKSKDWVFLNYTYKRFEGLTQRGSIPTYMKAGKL
Chain of Cyclin-dependent kinase 10 (Q15131 whole entry): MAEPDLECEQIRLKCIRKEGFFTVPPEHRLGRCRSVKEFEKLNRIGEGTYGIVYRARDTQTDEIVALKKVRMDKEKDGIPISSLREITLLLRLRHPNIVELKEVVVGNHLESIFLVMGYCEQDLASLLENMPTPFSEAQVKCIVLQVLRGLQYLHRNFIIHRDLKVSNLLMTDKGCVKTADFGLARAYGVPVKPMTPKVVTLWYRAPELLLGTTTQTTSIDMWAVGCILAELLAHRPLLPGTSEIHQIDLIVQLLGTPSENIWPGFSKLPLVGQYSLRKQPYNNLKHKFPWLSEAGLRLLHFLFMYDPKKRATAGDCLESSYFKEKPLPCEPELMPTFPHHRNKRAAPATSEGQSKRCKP
Chain of Serine/threonine-protein kinase PLK1 (P53350 whole entry): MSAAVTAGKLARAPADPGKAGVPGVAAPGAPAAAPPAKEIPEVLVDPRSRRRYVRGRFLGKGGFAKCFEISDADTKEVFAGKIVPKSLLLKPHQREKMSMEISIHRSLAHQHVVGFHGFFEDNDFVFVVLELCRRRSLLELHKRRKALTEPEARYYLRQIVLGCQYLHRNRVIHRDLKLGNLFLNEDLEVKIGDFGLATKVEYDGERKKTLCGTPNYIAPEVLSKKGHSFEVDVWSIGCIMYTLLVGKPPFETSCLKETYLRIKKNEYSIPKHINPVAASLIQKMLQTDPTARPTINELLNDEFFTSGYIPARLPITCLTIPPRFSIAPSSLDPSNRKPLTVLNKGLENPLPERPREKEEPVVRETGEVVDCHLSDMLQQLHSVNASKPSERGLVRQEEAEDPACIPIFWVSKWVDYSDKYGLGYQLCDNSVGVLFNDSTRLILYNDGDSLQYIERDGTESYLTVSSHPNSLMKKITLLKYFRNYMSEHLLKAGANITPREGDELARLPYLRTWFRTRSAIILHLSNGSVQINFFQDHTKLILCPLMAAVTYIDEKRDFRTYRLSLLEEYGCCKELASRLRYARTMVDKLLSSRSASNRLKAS
Chain of ALK tyrosine kinase receptor (Q9UM73 whole entry): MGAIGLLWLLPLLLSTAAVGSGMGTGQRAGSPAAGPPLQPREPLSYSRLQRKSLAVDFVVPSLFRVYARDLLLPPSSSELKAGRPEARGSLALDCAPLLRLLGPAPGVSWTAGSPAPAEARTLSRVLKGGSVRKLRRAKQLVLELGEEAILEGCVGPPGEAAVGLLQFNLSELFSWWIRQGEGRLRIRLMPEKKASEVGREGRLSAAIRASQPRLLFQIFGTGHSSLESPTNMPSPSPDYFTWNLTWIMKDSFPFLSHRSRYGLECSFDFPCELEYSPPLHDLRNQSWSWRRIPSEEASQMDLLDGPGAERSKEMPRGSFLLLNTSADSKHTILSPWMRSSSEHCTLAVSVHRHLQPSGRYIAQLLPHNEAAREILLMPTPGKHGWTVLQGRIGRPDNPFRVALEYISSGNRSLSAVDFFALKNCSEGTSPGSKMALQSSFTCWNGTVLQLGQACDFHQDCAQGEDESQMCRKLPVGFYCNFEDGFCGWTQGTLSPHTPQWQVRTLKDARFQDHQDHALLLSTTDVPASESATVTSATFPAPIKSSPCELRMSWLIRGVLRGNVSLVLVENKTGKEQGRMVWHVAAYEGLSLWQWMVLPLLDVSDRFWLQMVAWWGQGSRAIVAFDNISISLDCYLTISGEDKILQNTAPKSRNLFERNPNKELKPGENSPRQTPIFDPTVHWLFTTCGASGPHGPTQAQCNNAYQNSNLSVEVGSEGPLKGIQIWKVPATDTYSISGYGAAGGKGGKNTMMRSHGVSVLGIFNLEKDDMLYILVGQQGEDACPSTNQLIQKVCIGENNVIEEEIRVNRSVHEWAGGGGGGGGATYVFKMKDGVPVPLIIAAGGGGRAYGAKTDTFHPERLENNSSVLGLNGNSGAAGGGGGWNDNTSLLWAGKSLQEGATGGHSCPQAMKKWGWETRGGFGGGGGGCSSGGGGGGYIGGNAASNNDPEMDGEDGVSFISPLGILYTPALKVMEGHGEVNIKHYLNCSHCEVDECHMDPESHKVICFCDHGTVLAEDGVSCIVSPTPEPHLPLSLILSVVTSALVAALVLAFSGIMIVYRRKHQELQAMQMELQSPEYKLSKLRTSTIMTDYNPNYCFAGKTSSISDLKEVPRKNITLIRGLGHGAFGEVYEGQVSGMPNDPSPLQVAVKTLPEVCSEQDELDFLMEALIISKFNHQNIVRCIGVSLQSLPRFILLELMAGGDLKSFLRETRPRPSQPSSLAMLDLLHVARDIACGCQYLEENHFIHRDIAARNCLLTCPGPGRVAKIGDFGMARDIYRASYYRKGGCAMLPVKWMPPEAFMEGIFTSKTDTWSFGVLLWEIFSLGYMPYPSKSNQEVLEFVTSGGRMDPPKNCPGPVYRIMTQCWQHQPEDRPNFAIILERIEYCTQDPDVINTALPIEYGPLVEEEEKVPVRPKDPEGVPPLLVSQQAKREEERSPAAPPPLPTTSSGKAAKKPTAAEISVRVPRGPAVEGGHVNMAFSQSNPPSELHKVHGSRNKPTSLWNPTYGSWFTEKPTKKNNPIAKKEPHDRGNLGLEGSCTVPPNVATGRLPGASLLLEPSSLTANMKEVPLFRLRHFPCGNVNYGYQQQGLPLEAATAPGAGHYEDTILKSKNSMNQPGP

| SMILES | Kd [1] | Kd [3] | Kd [5] | Kd (Misshapen-like kinase 1) | Kd [6] | Kd [8] | Kd [9] | further results |
| --- | --- | --- | --- | --- | --- | --- | --- | --- |
| O=c1[nH]c([C@@H]2CCCN2)nc2c1oc1ccc(Cl)cc12 | > 30 µM (inactive) | – | – | – | – | – | – | – |
| Cn1cc(-c2[nH]c3cc(NC(=O)[C@H](N)C4CCCCC4)cc4c3c2C=NNC4=O)cn1 | > 30 µM (inactive) | > 30 µM (inactive) | 0.018 µM | 0.02 µM | > 30 µM (inactive) | – | – | Kd [2]: > 30 µM (inactive); Kd [4]: > 30 µM (inactive) |
| Cc1c(NC(=O)OC[C@@H]2COCCN2)cn2ncnc(Nc3ccc4c(cnn4Cc4cccc(F)c4)c3)c12 [AC-480] | – | – | – | – | > 30 µM (inactive) | – | – | – |
| COc1ccc2c(OCc3nnc4ccc(-c5ccccc5)nn34)ccnc2c1 [AMG-208] | > 30 µM (inactive) | – | > 30 µM (inactive) | – | – | > 30 µM (inactive) | > 30 µM (inactive) | Kd [7]: > 30 µM (inactive); Kd [4]: > 30 µM (inactive) |
| S=C(NCc1ccc2c(c1)OCO2)N1CCN(c2ncnc3c2oc2ccccc23)CC1 [AMUVATINIB] | – | > 30 µM (inactive) | > 30 µM (inactive) | > 30 µM (inactive) | > 30 µM (inactive) | – | > 30 µM (inactive) | – |
| Cc1cc(Nc2nc(N[C@@H](C)c3ncc(F)cn3)ncc2Cl)n[nH]1 [AZD-1480] | – | > 30 µM (inactive) | – | – | > 30 µM (inactive) | > 30 µM (inactive) | > 30 µM (inactive) | – |
| CCN(CCCOc1ccc2c(Nc3cc(CC(=O)Nc4cccc(F)c4)n[nH]3)ncnc2c1)CCOP(=O)(O)O [BARASERTIB] | – | – | > 30 µM (inactive) | > 30 µM (inactive) | – | – | – | – |
| COc1ccc(-c2ccc3ncc4c(c3c2)n(-c2ccc(N3CCNCC3)c(C(F)(F)F)c2)c(=O)n4C)cn1 [BGT-226 FREE BASE] | – | – | – | > 30 µM (inactive) | > 30 µM (inactive) | – | – | Kd [4]: > 30 µM (inactive) |
| COc1cccc(Nc2ncnn3ccc(CN4CC[C@@H](N)[C@H](O)C4)c23)c1 [BMS-690514] | > 30 µM (inactive) | – | – | – | – | – | > 30 µM (inactive) | – |
| COc1cc2nccc(Oc3ccc(NC(=O)C4(C(=O)Nc5ccc(F)cc5)CC4)cc3)c2cc1OC [CABOZANTINIB] | – | – | – | – | > 30 µM (inactive) | > 30 µM (inactive) | – | Kd [2]: > 30 µM (inactive); Kd [7]: > 30 µM (inactive) |
| c1cc(OCCN2CCCCC2)cc(-c2n[nH]c3ccc(-c4nc[nH]n4)cc23)c1 [CC-401] | > 30 µM (inactive) | – | > 30 µM (inactive) | – | – | – | – | Kd [10]: > 30 µM (inactive) |
| CC1(COc2ccc3c(c2)ncn3-c2ccc3cccc(N4CCC(N)CC4)c3n2)COC1 [CRENOLANIB] | > 30 µM (inactive) | > 30 µM (inactive) | – | – | > 30 µM (inactive) | > 30 µM (inactive) | > 30 µM (inactive) | – |
| COc1cc2ncnc(Nc3ccc(F)c(Cl)c3)c2cc1NC(=O)/C=C/CN1CCCCC1 [DACOMITINIB ANHYDROUS] | > 30 µM (inactive) | – | – | – | – | – | > 30 µM (inactive) | – |
| Cn1c(=O)n(-c2ccc(C(C)(C)C#N)cc2)c2c3cc(-c4cnc5ccccc5c4)ccc3ncc21 [DACTOLISIB] | > 30 µM (inactive) | – | – | > 30 µM (inactive) | – | – | – | – |
| COc1cc(Nc2ncc(F)c(Nc3ccc4c(n3)N(COP(=O)(O)O)C(=O)C(C)(C)O4)n2)cc(OC)c1OC [FOSTAMATINIB] | > 30 µM (inactive) | – | – | – | > 30 µM (inactive) | > 30 µM (inactive) | > 30 µM (inactive) | Kd [7]: > 30 µM (inactive) |
| O=S(=O)(c1cccc2c(O)nccc12)N1CCCNCC1 [HYDROXYFASUDIL] | > 30 µM (inactive) | > 30 µM (inactive) | > 30 µM (inactive) | – | – | > 30 µM (inactive) | > 30 µM (inactive) | – |
| C[C@]1(O)C[C@@H](c2nc(-c3ccc4ccc(-c5ccccc5)nc4c3)c3c(N)nccn32)C1 [LINSITINIB] | – | > 30 µM (inactive) | > 30 µM (inactive) | > 30 µM (inactive) | – | – | > 30 µM (inactive) | – |
| Cc1ccc(C(=O)Nc2ccc(Oc3cc4cnn(C)c4cc3-c3cn[nH]c3)c(F)c2)c(=O)n1-c1ccc(F)cc1 [MERESTINIB] | > 30 µM (inactive) | > 30 µM (inactive) | – | > 30 µM (inactive) | > 30 µM (inactive) | – | > 30 µM (inactive) | – |

| SMILES | Kd [1] | Kd [3] | Kd [5] | Kd (Misshapen-like kinase 1) | Kd [6] | Kd [8] | Kd [9] | further results |
| --- | --- | --- | --- | --- | --- | --- | --- | --- |
| O=C(NOC[C@H](O)CO)c1ccc(F)c(F)c1Nc1ccc(I)cc1F [MIRDAMETINIB] | – | – | > 30 µM (inactive) | > 30 µM (inactive) | > 30 µM (inactive) | > 30 µM (inactive) | > 30 µM (inactive) | Kd [4]: > 30 µM (inactive) |
| CC1(C)CNc2cc(NC(=O)c3cccnc3NCc3ccncc3)ccc21 [MOTESANIB] | – | > 30 µM (inactive) | – | – | – | – | – | – |
| CN(c1ncccc1CNc1nc(Nc2ccc3c(c2)CC(=O)N3)ncc1C(F)(F)F)S(C)(=O)=O [PF-00562271] | – | > 30 µM (inactive) | – | – | – | – | – | – |
| CC(C)CC(=O)Nc1[nH]nc2c1CN(C(=O)C1CCN(C)CC1)C2(C)C [PHA-793887] | – | – | – | – | > 30 µM (inactive) | – | – | Kd [4]: > 30 µM (inactive) |
| O=C(NC[C@H](O)CO)c1ccncc1Nc1ccc(I)cc1F [PIMASERTIB] | – | > 30 µM (inactive) | – | > 30 µM (inactive) | > 30 µM (inactive) | > 30 µM (inactive) | > 30 µM (inactive) | Kd [2]: > 30 µM (inactive); Kd [4]: > 30 µM (inactive) |
| COCCN1CCN(Cc2ccc(-c3n[nH]c4c3C(=O)c3c(NC(=O)NN5CCOCC5)cccc3-4)cc2)CC1 [RGB-286638] | – | – | > 30 µM (inactive) | – | – | – | – | Kd [7]: > 30 µM (inactive) |
| O=C(O)c1ccc2c(c1)nc(Nc1cccc(Cl)c1)c1ccncc12 [SILMITASERTIB] | > 30 µM (inactive) | – | – | > 30 µM (inactive) | 0.672 µM (active) | – | – | – |
| CC(C)(O)CC(=O)NCCn1ccc2ncnc(Nc3ccc(Oc4cccc(C(F)(F)F)c4)c(Cl)c3)c21 [TAK-285] | – | – | – | – | – | – | > 30 µM (inactive) | Kd [10]: > 30 µM (inactive) |
| Cc1cc(C(=O)Nc2cc(Oc3ccc4nc(NC(=O)C5CC5)cn4n3)ccc2C)n(C)n1 [TAK-593] | – | – | – | – | > 30 µM (inactive) | – | – | – |
| Cn1c(=O)c(F)c(Nc2ccc(I)cc2F)c2c(=O)n(C[C@@H](O)CO)cnc21 [TAK-733] | – | – | – | – | – | > 30 µM (inactive) | > 30 µM (inactive) | – |
| O[C@H]1CC[C@H](Nc2ncc3nc(Nc4c(F)cc(F)cc4F)n([C@H]4CCOC4)c3n2)CC1 [TANZISERTIB] | > 30 µM (inactive) | – | > 30 µM (inactive) | > 30 µM (inactive) | – | – | – | Kd [2]: > 30 µM (inactive); Kd [7]: > 30 µM (inactive) |
| CNC(=O)c1cc(COc2nnc(Nc3ccc(Cl)cc3)c3ccoc23)ccn1 [TELATINIB] | – | > 30 µM (inactive) | – | > 30 µM (inactive) | – | – | – | Kd [2]: > 30 µM (inactive) |
| Cc1cc(-c2cc(OC(=O)c3ccccc3)ccc2Cl)cc2nnc(Nc3ccc(OCCN4CCCC4)cc3)nc12 [TG100-801] | > 30 µM (inactive) | > 30 µM (inactive) | – | – | – | > 30 µM (inactive) | > 30 µM (inactive) | Kd [7]: > 30 µM (inactive) |
| C[C@@H]1COC(Nc2ccc3ncnc(Nc4ccc(OCc5nccs5)c(Cl)c4)c3c2)=N1 [VARLITINIB] | > 30 µM (inactive) | – | > 30 µM (inactive) | > 30 µM (inactive) | – | – | > 30 µM (inactive) | Kd [2]: > 30 µM (inactive) |
| CNC(=O)c1cccc(-c2ccc3c(N4CCOC[C@@H]4C)nc(N4CCOC[C@@H]4C)nc3n2)c1 [VISTUSERTIB] | > 30 µM (inactive) | – | > 30 µM (inactive) | – | > 30 µM (inactive) | > 30 µM (inactive) | – | Kd [7]: > 30 µM (inactive); Kd [4]: > 30 µM (inactive) |
| NC(=O)c1ccc(N(C(N)=O)c2c(F)cccc2F)nc1-c1ccc(F)cc1F [VX-702] | > 30 µM (inactive) | – | – | – | > 30 µM (inactive) | – | > 30 µM (inactive) | Kd [2]: 0.002 µM |
| COc1cc2ncnc(Nc3ccc(O)cc3)c2cc1OC [WHI-P131] | – | > 30 µM (inactive) | – | – | > 30 µM (inactive) | – | > 30 µM (inactive) | Kd [2]: > 30 µM (inactive) |
